Earlier results in patent US20220218780A1, “Composition for Improving Vascular Endothelial Function or Improving Blood Flow in Peripheral Blood Vessels” (House Wellness Foods Corporation, priority 2018, published 2022).

Test system: vascular endothelial function
Settings: diabetes rat models, continuous oral administration every day, 30 mg/kg and 300 mg/kg body weight

## COc1cc(/C=C/C(=O)CC(=O)/C=C/c2ccc(O)c(OC)c2)ccc1O [curcumin]
  reduction in vascular endothelial function associated with diabetes: improved
